Experiments:
[1] = Intrinsic clearance in pooled human liver microsomes; format: in vitro ADME; details: pH 7.4
[2] = Intrinsic clearance in pooled mouse liver microsomes; format: in vitro ADME; details: pH 7.4
[3] = tested on: human γ-globin promoter (EGFP reporter) in K562 cells; experiment: HbF activation assay on K562 (EGFP/RFP reporter model system for screening of inducers of fetal hemoglobin); format: cell-based; details: 60 hours
In short: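 K562 cells stably carrying EGFP under the human γ-globin promoter and far-red FP under the β-globin promoter, with the LCR, were seeded at 1000 cells/well. Cells were exposed to compounds (0.25% DMSO final) for 60 h at 37 °C. Fluorescence was read by plate cytometry, normalized to Hoechst nuclei count, which also indicated proliferation or death.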

[4] = Intrinsic clearance in pooled rat liver microsomes; format: in vitro ADME; details: pH 7.4
Procedure: Assays were performed in presence of 0.5 mg/ml of microsomal protein, with a NADPH-generating system (1 mM NADP, 2.5 mM glucose 6-phosphate and 2 U/ml glucose 6-phosphate dehydrogenase) in 100 mM potassium phosphate buffer containing 3.3 mM MgCl2 (pH 7.4). Tested compounds were stored in 10 mM DMSO solution and incubated at 1 μM final concentration (final DMSO concentration in incubation less than 0.1%). Microsomes and substrates were preincubated at 37° C. for 5 min and then the enzymatic reactions were initiated by the addition of cofactors and incubated at 37° C. for up to 90 min. Incubations were terminated by the addition of an equivalent volume of cold acetonitrile containing I.S. Control incubations, where the substrate was incubated in the same buffer system containing pRLM without the NADPH-generating system, were also run.

[5] = Rat PK studies, oral dose; format: in vivo, Sprague-Dawley rats; details: male, Sprague-Dawley, plasma, po 10 mg/kg
Procedure: Rats Male Sprague-Dawley rats (250-350 g) were used for the absorption disposition studies. In each rat an indwelling cannula was implanted in the right jugular vein for blood sampling. The surgery was performed under light anaesthesia (Ketamine-Xilazine (85 mg/kg and 2.5 mg/kg respectively i.m.) one day prior the experiment). During the kinetic study, all animals were housed individually in plastic metabolism cages, and were unrestrained throughout the experiment. Compounds (6 mg/mL) were dissolved in 20% DMSO/60% PEG400/20% water for intravenous administration, and dissolved or suspended in 1% methylcellulose for oral administration (2 mg/ml). After an overnight fast, the rats received an i.v. (via caudal vein) or an oral dose of the compound. Blood samples were collected at different times point after dosing. Plasma was separated immediately after blood sampling by centrifugation, and the plasma samples were kept frozen (−20° C.) until assayed by LC/MS/MS.
Analytical procedures: Plasma samples were extracted using Liquid Handling Robot MultiProbe Packard by protein precipitation with acetonitrile. Then the samples were centrifuged (3000 rpm×15 min at 4° C.) and the supernatant transferred and dried under nitrogen. The samples were reconstituted in water/acetonitrile 90/10 and then injected directly into an HPLC column. Sample analyses were performed using a an API 3000 or/and API 2000 or/and API 4000 Mass Spectrometer interfaced via the Turbo Ion Spray (ESI)/APCI to an LC system consisting of an HTS PAL CTC autosampler and an Agilen HP 1100 Binary Pump. The results are calculated using Analyst Software linear regression with 1/x*x weighting. The Assay Precision was calculated for the Quality Controls by Watson Lims database.
Pharmacokinetic Analysis: The plasma clearance (CLp) of the compounds were calculated (using Watson PK program) as the dose divided by the area under the plasma concentration-time curve from time zero to infinity (AUC0-∞). The apparent half-life was estimated from the slope of the terminal phase of the log plasma concentration-time data. The volume of distribution (Vdss) was determined using the following noncompartmental method: Vdss=(Dose IV×AUMC)/(AUC0-∞)2
where AUMC is the total area under the first moment of the drug concentration time curve from time zero to infinity. Bioavailability was estimated as the AUC0-∞ ratio following oral and intravenous administration, normalized for differences in dose.

[6] = Mouse in vivo pharmacokinetics, oral dose; details: plasma
Procedure: Compounds of the invention were evaluated in in vitro and in vivo pharmacokinetic studies.

HDAC in Hela cells = experiment: HDAC Hela Cell Based assay
HDAC1 = molecular target: T1, HDAC1 (Homo sapiens, UniProt Q13547); experiment: HDAC1 assay (Fluor-de-Lys fluorescent deacetylase assay); format: biochemical; details: read-out: hHDAC IC50
T1 construct: made in house
T1 sequence (Q13547 whole entry): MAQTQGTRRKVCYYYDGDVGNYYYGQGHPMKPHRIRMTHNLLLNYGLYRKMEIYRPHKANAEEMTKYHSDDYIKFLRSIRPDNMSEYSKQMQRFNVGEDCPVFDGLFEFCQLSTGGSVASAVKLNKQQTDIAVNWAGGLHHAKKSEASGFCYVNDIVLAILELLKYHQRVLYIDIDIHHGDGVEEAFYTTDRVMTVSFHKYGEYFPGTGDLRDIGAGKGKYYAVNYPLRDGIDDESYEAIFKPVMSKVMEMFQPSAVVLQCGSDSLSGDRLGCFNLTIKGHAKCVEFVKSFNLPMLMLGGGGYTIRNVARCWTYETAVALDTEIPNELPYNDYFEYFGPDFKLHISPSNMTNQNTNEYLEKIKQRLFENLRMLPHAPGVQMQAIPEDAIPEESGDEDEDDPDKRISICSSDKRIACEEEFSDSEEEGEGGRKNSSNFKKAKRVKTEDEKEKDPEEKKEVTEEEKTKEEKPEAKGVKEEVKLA
In short: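 Serially diluted compounds were pre-incubated with purified FLAG-tagged HDAC1 (1-2 nM final; from transfected HeLa cells) or HeLa nuclear extract, then given the Fluor-de-Lys acetyl-lysine substrate/developer; deacetylation read as fluorescence. Reactions were stopped with TSA (3 uM final).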

human γ-globin gene = details: transgenic mice; Cao, H Exp. Hematol. 2005; cited from earlier work

Row | SMILES | microsomal CLint at 1 μM [1] [µL/min/mg] | microsomal CLint at 1 μM [2] [µL/min/mg] | EC50 [3] [nM] | microsomal CLint at 1 μM [4] [µL/min/mg] | AUC ([6]; po 10 mg/kg) [µM·h] | Cmax ([6]; po 10 mg/kg) [nM] | IC50 (HDAC in Hela cells) [nM] | IC50 (HDAC1) [nM] | AUC ([6]; po 5 mg/kg) [µM·h] | Cmax ([6]; po 5 mg/kg) [nM] | AUC [5] [µM·h] | Cmax [5] [nM] | increase of human γ/murine α-globin mRNA ratios (human γ-globin gene) [%]
1 | CCC(=O)CCCCC[C@H](NC(=O)C1CN(C)C1)c1ncc(-c2cc3ccccc3[nH]c2=O)o1 [Compound 44, (S)-1-methyl-N-(7-oxo-1-(5-(2-oxo-1,2-dihydroquinolin-3-yl)oxazol-2-yl)nonyl)azetidine-3-carboxamide] | 11 | 11 | 100 to 1000 | 17 |  |  | < 100 | < 100 |  |  |  |  | 
2 | CCC(=O)NO [propionyl hydroxamate] |  |  |  |  |  |  |  |  |  |  |  |  | 71
3 | CCC(=O)CCCCC[C@H](NC(=O)C12CCN(CC1)CC2)c1ncc(-c2cc3ccccc3nc2OC)o1 [Compound 41, (S)-N-(1-(5-(2-methoxyquinolin-3-yl)oxazol-2-yl)-7-oxononyl)quinuclidine-4-carboxamide] |  |  | > 1000 |  |  |  | < 100 | < 100 |  |  | 10.1 | 470 | 
4 | CCCC(=O)NO [butyryl hydroxamate] |  |  |  |  |  |  |  |  |  |  |  |  | 33.9

More lines, main results first:

Row | microsomal CLint at 1 μM [1] [µL/min/mg] | microsomal CLint at 1 μM [2] [µL/min/mg] | EC50 [3] [nM] | microsomal CLint at 1 μM [4] [µL/min/mg] | AUC ([6]; po 10 mg/kg) [µM·h] | Cmax ([6]; po 10 mg/kg) [nM] | IC50 (HDAC in Hela cells) [nM] | IC50 (HDAC1) [nM] | AUC ([6]; po 5 mg/kg) [µM·h] | Cmax ([6]; po 5 mg/kg) [nM] | SMILES | AUC [5] [µM·h] | Cmax [5] [nM] | increase of human γ/murine α-globin mRNA ratios (human γ-globin gene) [%]
5 | 60 | 19 | > 1000 | 30 | 1.75 | 630 | 100 to 1000 | < 100 |  |  | CCC(=O)CCCCC[C@H](NC(=O)C1CN(C)C1)c1nnc(-c2cc3ccccc3nc2OC)o1 [Compound 52, (S)-N-(1-(5-(2-methoxyquinolin-3-yl)-1,3,4-oxadiazol-2-yl)-7-oxononyl)-1-methylazetidine-3-carboxamide] | 5.91 | 580 | 
6 | 3 | 15 | > 1000 | 21 |  |  | 100 to 1000 | < 100 | 5.93 | 670 | CCC(=O)CCCCC[C@@H](NC(=O)C1CN(C)C1)c1ncc(-c2cc3ccccc3nc2OC)o1 [Compound 42, (R)-N-(1-(5-(2-methoxyquinolin-3-yl)oxazol-2-yl)-7-oxononyl)-1-methylazetidine-3-carboxamide] |  |  | 
